The subject of assay [1] is Salmonella choleraesuis (Se). Kind of assay: Minimum inhibitory concentration (MIC) in nutrient agar, Salmonella choleraesuis. Type of assay: cell-based. The conditions noted are these: Salmonella enterica. The procedure, abridged: (§1)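 Neutral (pH 6.8) and alkaline (pH 8.2) nutrient agar plates carrying 1.0–500 ppm compound (final) are replicator-inoculated with each bacterium at 10^8 CFU/mL. After 48 h incubation at 30° C, the lowest compound concentration without growth is recorded.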

The subject of another assay is marine organisms. Kind of assay: Marine antifouling rating of coated test panels exposed to the marine environment. The conditions noted are these: scale 10 (completely free of growth) to 0 (completely covered); for Marine Antifouling Rating, 6 Week Test, Top Panel / Marine Antifouling Rating, 6 Week Test, Bottom Panel: 6 weeks; for Marine Antifouling Rating, 6 Week Test, Top Panel / Marine Antifouling Rating, 10 Week Test, Top Panel: topside; for Marine Antifouling Rating, 6 Week Test, Bottom Panel / Marine Antifouling Rating, 10 Week Test, Bottom Panel: underside; for Marine Antifouling Rating, 10 Week Test, Top Panel / Marine Antifouling Rating, 10 Week Test, Bottom Panel: 10 weeks. How it is done: Test panels are prepared from clear, rigid polyvinyl chloride film that is 0.381×10-3 m thick and has one textured surface. The test panels are 0.1524 m by 0.1524 m squares that have 0.00635 m holes punched at corners on 0.127 m centers. A 0.102 square template, with a 0.067 m diameter hole at the center, is attached to the center of the textured surface of the test panels.
A candidate marine antifoulant compound (1.0 g) is stirred into a resinous latex binder (9.0 g). A portion of the compound/binder mixture (1.5 g) is added to the center of the test panel and uniformly spread over the circular area inside the template.
Water is added dropwise as needed to properly spread the compound/binder mixture. The template prevents the compound/binder mixture from spreading beyond the uncovered area. […] The template is then removed. The test panel is then allowed to dry for 8 to 12 hours at room temperature.
Two test panels are prepared for each candidate marine antifoulant compound. Two control test panels are also prepared by only treating with the resinous latex binder. One test panel of each candidate marine […] compound is attached over a white background to the topside of an exposure support apparatus. The second test panel is attached over a black background to the underside of the exposure support apparatus. The exposure support apparatus is placed horizontally 0.0254 m under a marine surface with the white background topside facing up.
After being removed from the exposure support apparatus, each test panel is inspected and rated for marine organism growth on both the treated and untreated areas of the test panel, The marine organisms present on the treated and untreated areas are noted. The presence of algae spores and bacterial slime are noted but not included in rating each test panel. The test panels are rated on a scale from 10 (representing completely free of marine organism growth) to 0 (representing completely covered with marine organism growth).
In addition, test panels were prepared using tributyl tin oxide, a known marine antifouling compound.

For assay [2], the system named is Saccharomyces cerevisiae (Sc). Kind of assay: Minimum inhibitory concentration (MIC) in malt yeast agar, Saccharomyces cerevisiae. Type of assay: cell-based. The procedure, abridged:
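Plates of pH 5.5 malt yeast agar carried test compound dispersed from a one percent acetone–water solution, final 500 to zero ppm. After diluted slant-culture suspensions were applied, plates were kept at 30 °C and examined at 72 h for fungi, 48 h for yeast.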

For assay [3], the system named is Klebsiella pneumoniae (Kp). Put plainly: Minimum inhibitory concentration (MIC) in nutrient agar, Klebsiella pneumoniae. Format: cell-based. The procedure, abridged: as §1
The next assay concerns Aspergillus niger (An). Kind of assay: Minimum inhibitory concentration (MIC) in malt yeast agar, Aspergillus niger. Type of assay: cell-based. The conditions noted are these: 72 h, pH 5.5, read-out: Minimum Inhibitory Concentration, An. The procedure, abridged: (§2)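 Malt yeast agar pH 5.5 + cpd (from 1% soln in acetone/water) at final 500–zero ppm, poured at 48 °C, dried 24 h. Inoculum: 7-day 30 °C slants suspended in saline/octylphenoxy polyethoxy ethanol, diluted 1:9, replicator-spotted. Incubated 30 °C; read 48 h yeast, 72 h fungi.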

Assay [4] has as its system Penicillium chrysogenum (Pc). Kind of assay: Minimum inhibitory concentration (MIC) in malt yeast agar, Penicillium chrysogenum. Format: cell-based. The note with it: 72 h, pH 5.5, read-out: Minimum Inhibitory Concentration, PC. The procedure, abridged: as §2
The mark [5] stands for this setting: pH 6.8, nutrient agar, 30° C., 48 hours, read-out: Minimum Inhibitory Concentration, SC.
The mark [6] stands for this setting: pH 6.8, nutrient agar, 30° C., 48 hours, read-out: Minimum Inhibitory Concentration, Kp.

Each structure is given as a SMILES string. ≈ marks a conversion by molar mass, not a printed value. Like-named read-outs stand apart in the source and are kept apart here.

As for `N#CSc1nsnc1-c1ccccc1` [Example I, 4-Phenyl-3-thiocyanato-1,2,5-thiadiazole], the MIC was greater than 500 µg/mL in assay [1] (48 h, pH 8.2, read-out: Minimum Inhibitory Concentration, SC); 50 µg/mL (≈ 228 µM) in assay [1] (setting [5]); less than 1 µg/mL in assay [2] (pH 5.5, malt yeast agar, 30° C., 48 hours for yeast, read-out: Minimum Inhibitory Concentration, SC); 500 µg/mL (≈ 2280 µM) in assay [3] (48 h, pH 8.2, read-out: Minimum Inhibitory Concentration, Kp); 25 µg/mL (≈ 114 µM) in assay [3] (setting [6]). Also, the “Marine Antifouling Rating, 6 Week Test, Top Panel” value in the assay on marine organisms came out at 7. In addition, the “Marine Antifouling Rating, 6 Week Test, Bottom Panel” value in the assay on marine organisms was found to be 7. Also, the “Marine Antifouling Rating, 10 Week Test, Top Panel” value in the assay with marine organisms was found to be 4. The “Marine Antifouling Rating, 10 Week Test, Bottom Panel” value in the assay on marine organisms turned out to be 3.

`N#CSCSc1nsnc1-c1ccccc1` [Example XVI, 4-Phenyl-3-thiocyanato-methylthio-1,2,5-thiadiazole]: the MIC in assay [1] (setting [5]) is 25 µg/mL (≈ 94.2 µM); in assay [1] (pH 8.2, nutrient agar, 30° C., 48 hours, read-out: Minimum Inhibitory Concentration, SC), 250 µg/mL (≈ 942 µM); in the assay on Aspergillus niger (An), 2.5 µg/mL (≈ 9.42 µM); in assay [2] (48 h, pH 5.5, read-out: Minimum Inhibitory Concentration, SC), 2.5 µg/mL (≈ 9.42 µM); in assay [3] (setting [6]) it was 25 µg/mL (≈ 94.2 µM); in assay [3] (pH 8.2, nutrient agar, 30° C., 48 hours, read-out: Minimum Inhibitory Concentration, Kp), 100 µg/mL (≈ 377 µM). Besides, the MIC in assay [4] amounted to 2.5 µg/mL (≈ 9.42 µM). The “Marine Antifouling Rating, 6 Week Test, Top Panel” value in the assay on marine organisms worked out at 9. Also, in the assay on marine organisms, the “Marine Antifouling Rating, 6 Week Test, Bottom Panel” value stood at 9. Also, the “Marine Antifouling Rating, 10 Week Test, Top Panel” value in the assay with marine organisms is given as 4. In the assay with marine organisms, the “Marine Antifouling Rating, 10 Week Test, Bottom Panel” value was 9.

The values are drawn from patent publication US5488060A, “Substituted thiadiazoles, compositions containing them and their use as antimicrobial and marine antifouling agents” (The Dow Chemical Company, priority 1994, dated 1996).
